Data as given in patent publication US20250313562A1, “Substituted tricyclic ligands for FK506-binding proteins for treatment of diseases” (Technische Universität Darmstadt, priority 2024, published 2025).

Experiments:
FKBP12 [1] = biological target: T1, FKBP12 (Homo sapiens, UniProt P62942); assay: competitive fluorescence polarization assay, FKBP12; assay type: binding
Method: (§1) Affinity determination by competitive fluorescence polarization assay. The synthesized tricyclic sulfonamides were tested for their binding affinities to human FKBPs (FKBP12 and FKBP51) by the fluorescence polarization assay (Table 1).

FKBP51 [2] = biological target: T2, FKBP51 (Homo sapiens, UniProt Q13451); assay: competitive fluorescence polarization assay, FKBP51; assay type: binding
T2 sequence (Q13451 1-457): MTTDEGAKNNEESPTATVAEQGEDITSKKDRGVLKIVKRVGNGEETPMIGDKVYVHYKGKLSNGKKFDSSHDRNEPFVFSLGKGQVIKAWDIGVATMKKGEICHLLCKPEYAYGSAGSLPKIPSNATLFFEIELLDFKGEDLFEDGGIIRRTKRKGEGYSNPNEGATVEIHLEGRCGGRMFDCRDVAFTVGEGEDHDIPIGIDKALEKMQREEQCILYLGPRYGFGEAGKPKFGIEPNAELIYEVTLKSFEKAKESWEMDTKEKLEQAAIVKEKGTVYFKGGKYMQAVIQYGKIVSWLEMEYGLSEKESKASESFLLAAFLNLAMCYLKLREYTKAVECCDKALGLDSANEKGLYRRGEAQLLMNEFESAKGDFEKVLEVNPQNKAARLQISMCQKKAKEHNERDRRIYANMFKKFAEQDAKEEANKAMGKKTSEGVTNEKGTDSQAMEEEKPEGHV
Method: as §1

FKBP51 [3] = biological target: T2, FKBP51; assay: nanoBRET assay, intracellular FKBP51 occupancy in HEK293T cells; assay type: cell-based; conditions: for IC50: intracellular occupancy; for displacement of the tracer for FKBP51 (potency in words): nanoBRET
Method: (§2) For compounds 31 and 32 target engagement of FKBP12 and FKBP51 in the HEK293T cells was tested (Table 2).

FKBP12 [4] = biological target: T1, FKBP12; assay: nanoBRET assay, intracellular FKBP12 occupancy in HEK293T cells; assay type: cell-based; conditions: for IC50: intracellular occupancy
Method: as §2

T1 sequence (P62942 whole entry): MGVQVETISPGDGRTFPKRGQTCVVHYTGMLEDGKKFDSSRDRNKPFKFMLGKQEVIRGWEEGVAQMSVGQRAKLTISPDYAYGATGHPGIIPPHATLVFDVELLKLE

Ki (FKBP12 [1]) [nM]	Ki (FKBP51 [2]) [nM]	Compound	IC50 (FKBP51 [3]) [nM]	displacement of the tracer for FKBP51 (potency in words) (FKBP51 [3])	IC50 (FKBP12 [4]) [nM]	competition with the tracer for FKBP12 (potency in words) (FKBP12 [4]; nanoBRET)
12 ± 1.7	698 ± 49	C=C[C@@H]1C2CCCC(C(=O)N3[C@H](C(=O)O)CC[C@@H]13)N2S(=O)(=O)c1cc(Cl)cc(Cl)c1 (stereo partly drawn) [Compound 3]				
0.55 ± 0.07	17 ± 1.7	C=C[C@@H]1C2CCCC(C(=O)N3[C@H](C(=O)N4C[C@@H]5C[C@H]4CN5C)CC[C@@H]13)N2S(=O)(=O)c1cc(Cl)cc(Cl)c1 [Compound 27]				
2.3 ± 0.2	121 ± 8	C=C[C@@H]1C2CCCC(C(=O)N3[C@H](C(=O)N(C)C)CC[C@@H]13)N2S(=O)(=O)c1cc(Cl)cc(Cl)c1 (stereo partly drawn) [Compound 23]				
0.067 ± 0.01	0.93 ± 0.2	C=C[C@@H]1C2CCCC(C(=O)N3[C@H](C(=O)N4CCC(C)CC4)CC[C@@H]13)N2S(=O)(=O)c1cc(Cl)cc(Cl)c1 (stereo partly drawn) [Compound 25]				
0.043 ± 0.01	1.1 ± 0.4	C=C[C@@H]1C2CCCC(C(=O)N3[C@H](C(=O)NCC)CC[C@@H]13)N2S(=O)(=O)c1cc(Cl)cc(Cl)c1 (stereo partly drawn) [Compound 24]				
0.16 ± 0.018	11 ± 0.7	C=C[C@@H]1C2CCCC(C(=O)N3[C@H](C(=O)N4CCN(C)CC4)CC[C@@H]13)N2S(=O)(=O)c1cc(Cl)cc(Cl)c1 (stereo partly drawn) [Compound 26]				
12 ± 1.6	464 ± 79	C=C[C@H]1[C@@H]2CC[C@@H](c3ccccn3)N2C(=O)C2CCC[C@@H]1N2S(=O)(=O)c1cc(Cl)cc(Cl)c1 [Compound 30]				
0.72 ± 0.1	52 ± 6	C=C[C@@H]1C2CCCC(C(=O)N3[C@H](C(=O)N4C[C@@H]5C[C@H]4CN5)CC[C@@H]13)N2S(=O)(=O)c1cc(Cl)cc(Cl)c1 [Compound 28]				
0.32 ± 0.04	7.7 ± 0.9	C=C[C@@H]1C2CCCC(C(=O)N3[C@H](C(=O)NC)CC[C@@H]13)N2S(=O)(=O)c1cc(Cl)cc(Cl)c1 (stereo partly drawn) [Compound 22]				
1 ± 0.1	76 ± 10	C=C[C@@H]1C2CCCC(C(=O)N3[C@H](C(=O)OC)CC[C@@H]13)N2S(=O)(=O)c1cc(Cl)cc(Cl)c1 (stereo partly drawn) [Compound 20]				
0.48 ± 0.08	18 ± 3	C=C[C@@H]1C2CCCC(C(=O)N3[C@H](C(N)=O)CC[C@@H]13)N2S(=O)(=O)c1cc(Cl)cc(Cl)c1 (stereo partly drawn) [Compound 21]				

Compound	Ki (FKBP12 [1]) [nM]	Ki (FKBP51 [2]) [nM]	IC50 (FKBP51 [3]) [nM]	displacement of the tracer for FKBP51 (potency in words) (FKBP51 [3])	IC50 (FKBP12 [4]) [nM]	competition with the tracer for FKBP12 (potency in words) (FKBP12 [4]; nanoBRET)
CCNC(=O)[C@@H]1CC[C@H]2[C@H](CO)C3CCCC(C(=O)N12)N3S(=O)(=O)c1cc(Cl)cc(Cl)c1 (stereo in doubt) [Compound 31]	0.013 ± 0.004	0.76 ± 0.2	8.5 ± 0.6	low nanomolar potency	3.9 ± 0.3	
CC1CCN(C(=O)[C@@H]2CC[C@H]3[C@H](CO)C4CCCC(C(=O)N23)N4S(=O)(=O)c2cc(Cl)cc(Cl)c2)CC1 (stereo in doubt) [Compound 32]	0.019 ± 0.007	0.72 ± 0.2	3.3 ± 0.3	low nanomolar potency	0.49 ± 0.04	subnanomolar potency
